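All cell lines were grown in 96-well plates and treated with compound for 48 hours. GI50 = concentration required for 50% inhibition of growth.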 The source made the active and inactive calls. Cut-off read from the data, not from the text of the source: active = GI50 up to about 1.1 µM and inactive = higher.
Legend:
Test in all cases: inhibition of tumour cell growth, NCI panel, 48 h
BT-549 = system: BT-549
IGROV-1 = system: IGROV-1
OVCAR-4 = system: OVCAR-4
SNB-19 = system: SNB-19
Hs-578T = system: Hs-578T
HOP-92 = system: HOP-92
MDA-MB-231 = system: MDA-MB-231
SF-295 = system: SF-295
HCC 2998 = system: HCC 2998
RPMI-8226 = system: RPMI-8226
786-0 = system: 786-0
M14 = system: M14
NCI-H460 = system: NCI-H460
U-251 = system: U-251
SR = system: SR
SNB-75 = system: SNB-75
A549 = system: A549
RXF 393 = system: RXF 393
EKVX = system: EKVX
TK-10 = system: TK-10

SMILES | GI50 (BT-549) | GI50 (IGROV-1) | GI50 (OVCAR-4) | GI50 (SNB-19) | GI50 (Hs-578T) | GI50 (HOP-92) | GI50 (MDA-MB-231) | GI50 (SF-295) | GI50 (HCC 2998) | GI50 (RPMI-8226) | GI50 (786-0) | GI50 (M14) | GI50 (NCI-H460) | GI50 (U-251) | GI50 (SR) | GI50 (SNB-75) | GI50 (A549) | GI50 (RXF 393) | GI50 (EKVX) | GI50 (TK-10)
CC1(C)CC[C@]2(C(=O)O)CC[C@]3(C)C(=CC[C@@H]4[C@@]5(C)CC[C@H](OC6OC(CO)C(O)C(O)C6O)C(C)(C)[C@@H]5CC[C@]43C)[C@@H]2C1 (stereo partly drawn) | 1.31 µM (inactive) | 1.58 µM (inactive) | 1.61 µM (inactive) | 1.52 µM (inactive) | 2.26 µM (inactive) | 1.68 µM (inactive) | 1.66 µM (inactive) | 1.78 µM (inactive) | 1.59 µM (inactive) | 2.61 µM (inactive) | 1.77 µM (inactive) | 1.75 µM (inactive) | 3.61 µM (inactive) | 1.68 µM (inactive) | 2.34 µM (inactive) | 2.12 µM (inactive) | 1.68 µM (inactive) | 1.98 µM (inactive) | 1.93 µM (inactive) | 
Cc1ccc(-c2cc[n+]3c(n2)oc2ccccc23)cc1 | 28.2 µM (inactive) | 26.8 µM (inactive) | 16 µM (inactive) | 69.8 µM (inactive) | 27.8 µM (inactive) | 14.2 µM (inactive) | 75.2 µM (inactive) | 26.7 µM (inactive) | 30.5 µM (inactive) | 12.5 µM (inactive) | 14.7 µM (inactive) | 25.9 µM (inactive) | 72.8 µM (inactive) | 36.7 µM (inactive) | 11 µM (inactive) | 25 µM (inactive) | 53.3 µM (inactive) |  | 26.4 µM (inactive) | 
CC(C)=CCN=C(N)N | > 100 µM (inactive) | > 100 µM (inactive) | > 100 µM (inactive) | > 100 µM (inactive) | > 100 µM (inactive) | > 100 µM (inactive) | > 100 µM (inactive) | > 100 µM (inactive) | > 100 µM (inactive) | 24.9 µM (inactive) | > 100 µM (inactive) |  | > 100 µM (inactive) | > 100 µM (inactive) | 16.7 µM (inactive) |  | > 100 µM (inactive) | > 100 µM (inactive) | > 100 µM (inactive) | > 100 µM (inactive)
Oc1cccc(-c2cn3cc(C(F)(F)F)ccc3n2)c1 | 37.2 µM (inactive) | 20.4 µM (inactive) | 22.1 µM (inactive) | 70.1 µM (inactive) | 74.6 µM (inactive) | 55.2 µM (inactive) | 43.7 µM (inactive) | 24.5 µM (inactive) | 22.6 µM (inactive) |  | 54.6 µM (inactive) | 39.3 µM (inactive) | 26.1 µM (inactive) | 50.6 µM (inactive) | 31.6 µM (inactive) |  | 28.6 µM (inactive) | 13.8 µM (inactive) | 17.5 µM (inactive) | 22.5 µM (inactive)
CC1C(c2ccccc2)NC(c2ccccc2)CC1(N)C#N (stereo not drawn) | > 100 µM (inactive) | > 100 µM (inactive) | > 100 µM (inactive) | > 100 µM (inactive) | > 100 µM (inactive) | 95.1 µM (inactive) | > 100 µM (inactive) | > 100 µM (inactive) | > 100 µM (inactive) |  | > 100 µM (inactive) | 38.8 µM (inactive) | > 100 µM (inactive) | > 100 µM (inactive) | > 100 µM (inactive) | > 100 µM (inactive) | > 100 µM (inactive) | > 100 µM (inactive) | > 100 µM (inactive) | > 100 µM (inactive)
COc1ccc(-c2cc(-c3ccccc3)nc3c2CC(=O)Nc2ccccc2-3)cc1OC | > 100 µM (inactive) | > 100 µM (inactive) | 1.2 µM (inactive) |  | 0.855 µM (active) | 5.46 µM (inactive) | 1.32 µM (inactive) | > 100 µM (inactive) | > 100 µM (inactive) | > 100 µM (inactive) | 4.79 µM (inactive) | > 100 µM (inactive) | > 100 µM (inactive) | 4.17 µM (inactive) | 8.18 µM (inactive) | 0.424 µM (active) |  | 6.73 µM (inactive) | > 100 µM (inactive) | > 56.1 µM (inactive)
N#CC(c1ccccc1)N(CCc1ccccc1)C(=O)Oc1ccccc1 (stereo not drawn) | > 100 µM (inactive) | > 100 µM (inactive) | > 100 µM (inactive) | 53 µM (inactive) | 44.8 µM (inactive) | 29.5 µM (inactive) | > 100 µM (inactive) | > 100 µM (inactive) | > 100 µM (inactive) | > 100 µM (inactive) | > 100 µM (inactive) | > 100 µM (inactive) |  | > 100 µM (inactive) | > 100 µM (inactive) | 25.6 µM (inactive) | > 100 µM (inactive) | 46.9 µM (inactive) | > 100 µM (inactive) | > 100 µM (inactive)
COP(=O)(OC)C1=c2c(C)noc2=C2C=COC2C1=O (stereo not drawn) | > 100 µM (inactive) | > 100 µM (inactive) | > 100 µM (inactive) | > 100 µM (inactive) | 45.9 µM (inactive) | 63.4 µM (inactive) | 56.1 µM (inactive) | > 100 µM (inactive) | > 100 µM (inactive) | > 100 µM (inactive) | > 100 µM (inactive) | > 100 µM (inactive) |  | > 100 µM (inactive) | > 100 µM (inactive) | 94.6 µM (inactive) | > 100 µM (inactive) | > 100 µM (inactive) | > 100 µM (inactive) | > 100 µM (inactive)

From ChEMBL document CHEMBL1201862, “PubChem BioAssay data set” (2004)
